Measured values from BindingDB's records for patent US20260014125 (Haihe Biopharma, 2026).

Target: S-adenosylmethionine synthase isoform type-2 (Homo sapiens, UniProt P31153)
Assay: Enzymatic Activity of MAT2A
Experimental: 1. 1×Assaybuffer (buffer composition: Tris, KCl, MgCl2, BSA, Brij35, and EDTA; the solvent was ultrapure water) was prepared. MAT2A his-tag enzyme solution (containing 1.3 μL of MAT2A enzyme and 998.7 μL of 1×Assaybuffer per 1000 μL) and substrate mixed solution (containing 5 μL of ATP, 1.3 μL of L-methionine, and 993.7 μL of 1×Assaybuffer per 1000 μL) were prepared using 1×AssayBuffer.2. Preparation of compound concentration gradient: The test compound was tested with a starting concentration of 10 μM, and 10 […] concentrations were set according to a 3-fold dilution. Specifically, firstly, the compound was diluted into 10 different concentrations of series solutions in a 384 well plate (with final detection concentrations of 10, 3.33, 1.11, 0.37, 0.123, 0.041, 0.0137, 0.0046, 0.0015, and 0.0005 μM), and then 250 nL of the above series solutions was transferred to the 384 well reaction plate using an ultrasonic pipetting system Echo550 for later use. 250 nL of 100% DMSO was added into a negative control well and a positive control well, respectively. Double well test.3. 15 μL of MAT2A his-tag enzyme solution was added into both the compound well and the positive control well; and 15 μL of 1×Assaybuffer was added into the negative control well.4. The 384 well plate reaction plate was centrifuged at 1000 rpm for 60 seconds, shaken, mixed well, and incubated for 15 minutes. 10 μL of substrate mixed solution was added into each experimental well of the 384 well reaction plate to initiate the reaction.5. The 384 well reaction plate was centrifuged at 1000 rpm for 60 seconds, shaken, mixed well, and incubated for 150 minutes.6. 50 μL of enzyme reaction termination solution Biomol was added into all experimental wells of the 384 well reaction plate to terminate the reaction, centrifuged at 1000 rpm for 60 seconds, and incubated for 15 minutes. OD620 was Data analysis: the inhibition rate (%) of the compound was calculated and fitted to obtain the IC50 of the tested compound.

Chain of S-adenosylmethionine synthase isoform type-2 (P31153 whole entry, canonical isoform): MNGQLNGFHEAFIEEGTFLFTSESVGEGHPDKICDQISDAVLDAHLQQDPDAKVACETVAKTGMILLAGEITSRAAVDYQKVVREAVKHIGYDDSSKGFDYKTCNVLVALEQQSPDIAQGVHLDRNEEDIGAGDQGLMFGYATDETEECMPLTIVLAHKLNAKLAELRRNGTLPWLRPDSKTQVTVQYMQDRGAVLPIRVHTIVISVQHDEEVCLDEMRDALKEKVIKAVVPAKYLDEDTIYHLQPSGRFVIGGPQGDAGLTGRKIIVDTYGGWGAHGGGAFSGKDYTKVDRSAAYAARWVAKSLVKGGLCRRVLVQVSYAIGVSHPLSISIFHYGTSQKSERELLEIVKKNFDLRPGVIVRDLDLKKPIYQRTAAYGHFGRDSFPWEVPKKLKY

IC50 [nM] | SMILES
8.3 | CCOc1c(-c2ccc(OC(F)F)cc2)c(=O)n(-c2ccc3nn(CCOC)cc3c2)c2[nH]ncc12 [US20260014125, Compound 21]
9.8 | CCOc1c(-c2ccc(OC(F)F)cc2)c(=O)n(-c2ccn3nccc3c2)c2[nH]ncc12 [US20260014125, Compound 23]
15.9 | CCOc1c(-c2ccc(OC(F)F)cc2)c(=O)n(-c2ccc3nccn3c2)c2[nH]ncc12 [US20260014125, Compound 24]
14 | CCOc1c(-c2ccc(OC(F)F)cc2)c(=O)n(-c2ccc3ncnn3c2)c2[nH]ncc12 [US20260014125, Compound 25]
